Reference: patent publication EP0360437A1, “Biocidal polylamine-amides” (priority 1988, dated 1990)
Read-outs that look alike come from different tables or passages of the source.

Tested on: complex formed by the invertebrate L-quisqualate sub-type L-glutamate receptor and its ion channel
Design: species or system Schistocerca gregaria
Method: The compounds were assayed for biological activity on the isolated, retractor unguis nerve-muscle preparation of the locust Schistocerca gregaria (Usherwood, P.N.R and Machili, P. (1968) J. Exp. Biol., 49: 341.). Isolated muscle preparations were bathed continuously in standard locust saline in a bath of volume 250µl. Twitch tension recordings of the muscle were made to electrical stimulation of its motor innervation supramaximal voltage, frequency 0.1Hz).
The locust isolated retractor unguis nerve-muscle is a preparation with well characterised muscle receptors belonging to the quisqualate-sensitive class (Boden, P. et al., (1986) Brain Res., 385: 205.). This preparation has previously been employed to identify antogonists of excitatory amino acid receptors, (e.g. Bateman, A. et al., (1985) Brain Res., 339: 237 and Budd, T. et al., (1988) Brain Res., 448: 30.).
The potency of this monocylated spermine as an antagonist of the complex formed by the invertebrate L-quisqualate sub-type L-glutamate receptor and its ion channel was assayed using the electrically stimulated retractor unguis muscle of the locust (Schistocerca gregaria). Twitch amplitude was reduced (1% inhibition) from control (100%) levels at the following concentrations: […]

NCCCNCCCCNCCCNC(=O)CCc1cccc(O)c1 [Example 5, N(3-Hydroxyphenylpropanoyl)-spermine]
inhibition of twitch (1.08 x 10⁻⁶M): 15%
inhibition of twitch (1.08 x 10⁻⁷M): 10%

NCCCNCCCNCCCNC(=O)Cc1cccc(O)c1 [Example 20, N-(3-Hydroxyphenylacetyl)-N′,N˝-bis(3-aminopropyl)-1,3-propanediamine]
Twitch amplitude was reduced from control (100%) levels (1.04 x 10⁻⁴M): approximately 60%

NCCCNCCCCNCCCNC(=O)C=Cc1ccc(O)cc1 [Example 6, N-(4-Hydroxycinnamoyl)-spermine]
Twitch amplitude was reduced from control (100%) levels (10⁻¹⁰M): 4%
Twitch amplitude was reduced from control (100%) levels (10⁻⁵M): 70%
Twitch amplitude was reduced from control (100%) levels (10⁻⁶M): 56%
Twitch amplitude was reduced from control (100%) levels (10⁻⁷M): 33%
Twitch amplitude was reduced from control (100%) levels (10⁻⁸M): 24%
Twitch amplitude was reduced from control (100%) levels (10⁻⁹M): 18%

NCCCNCCCCNCCCNC(=O)Cc1ccc(O)cc1 [Example 3, N-(4-Hydroxyphenylacetyl)-spermine]
Twitch amplitude was reduced from control (100%) levels (2.95x 10⁻⁵M): 74%
Twitch amplitude was reduced from control (100%) levels (4.43x 10⁻⁵M): 91%
Twitch amplitude was reduced from control (100%) levels (5.9 x 10⁻⁵M): 96%
Twitch amplitude was reduced from control (100%) levels (5.9 x 10⁻⁶M): 25%
Twitch amplitude was reduced from control (100%) levels (5.9 x 10⁻⁷M): 9%

NCCCNCCCCNCCCNC(=O)c1cccc(O)c1 [Example 11, N-(3-Hydroxybenzoyl)-spermine]
Twitch amplitude was reduced from control levels (1.02 x 10⁻⁵M): approximately 40%

NCCCNCCCCNCCCNC(=O)Cc1ccccc1O [Example 1, N-(2-Hydroxyphenylacetyl)-spermine]
inhibition of twitch (1.5 x 10⁻⁴M): 85%
inhibition of twitch (1.5 x 10⁻⁵M): 30%
inhibition of twitch (3 x 10⁻⁴M): 90%
inhibition of twitch (3 x 10⁻⁵M): 30%
inhibition of twitch (3 x 10⁻⁶M): 20%
inhibition of twitch (3 x 10⁻⁷M): 15%
inhibition of twitch (3 x 10⁻⁸M): 10% inhibition of twitch

NCCCNCCCNCCCNC(=O)Cc1ccc(O)cc1 [Example 21, N-(4-Hydroxyphenylacetyl)-N′,N˝-bis(3-aminopropyl)-1,3-propanediamine]
Twitch amplitude was reduced from control (100%) levels (10⁻⁴M): approximately 30%

NCCCNCCCCNCCCNC(=O)Cc1cc(O)cc(O)c1 [Example 9, N-(3,5-Dihydroxyphenylacetyl)-spermine]
Twitch amplitude was reduced from control levels (1 07 x 10⁻⁶M): 25%
Twitch amplitude was reduced from control levels (1.07 x 10⁻⁵M): 45%

NCCCNCCCCNCCCNC(=O)C=Cc1cccc(O)c1 [Example 13, N-(3-Hydroxycinnamoyl)-spermine]
Twitch amplitude was reduced from control levels (9.2 x 10⁻⁷M): approximately 25%

NCCCNCCCCNCCCNC(=O)CCc1ccc(O)cc1 [Example 22, N-(4-Hydroxyphenylpropanoyl)-spermine]
Twitch amplitude was reduced from control levels (1.45x 10^-5M): 38%
Twitch amplitude was reduced from control levels (1.45x 10^-6M): 30%
Twitch amplitude was reduced from control levels (2.9 x 10^-5M): 81%
Twitch amplitude was reduced from control levels (2.9 x 10^-6M): 38%
Twitch amplitude was reduced from control levels (2.9 x 10^-7M): 25%
Twitch amplitude was reduced from control levels (2.9 x 10^-8M): 10%
Twitch amplitude was reduced from control levels (7.25x 10^-5M): 100%
IC50 (reduction of twitch amplitude, retractor unguis muscle, read-out: IC₅₀): 6 µM

NCCCNCCCCNCCCNC(=O)Cc1cccc(O)c1 [Example 2, N-(3-Hydroxyphenylacetyl)-spermine]
inhibition of twitch (3 x 10⁻⁷M): 35%
inhibition of twitch (3 x 10⁻⁸M): 30%

NCCCNCCCCNCCCNC(=O)c1ccccc1O [Example 10]
Twitch amplitude was reduced from control level (1.09 x 10⁻⁵M): approximately 25%
